For 101 compounds, Kd results are on record in PubChem BioAssay AID1648 (Sanford-Burnham Center for Chemical Genomics, 2009).

Active and inactive are the calls of the source. The rule behind the calls is not given here.

The test addresses Serine/threonine-protein kinase mTOR (Homo sapiens) (UniProt P42345). The test is described as follows: mTOR FRB domain ligand binding – biophysical, NMR (AID 1648). As to conditions: NMR binding to FRB domain, chemical shift.

Chain of Serine/threonine-protein kinase mTOR (Homo sapiens) (P42345 2015-2114): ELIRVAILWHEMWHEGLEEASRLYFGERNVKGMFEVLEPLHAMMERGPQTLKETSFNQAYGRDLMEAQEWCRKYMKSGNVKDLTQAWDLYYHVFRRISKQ

As a reminder, the Kd is the free concentration of one partner at which half of the binding sites on the other are occupied at equilibrium, for simple one-to-one binding. Consider `Cc1cc(C(=O)NCc2cccs2)c(C)o1`, for which the Kd is > 4 mM (inactive).

Regarding `CSc1nc(-c2ccccc2)ccc1C(N)=O`, the Kd is > 4 mM (inactive).

Regarding `Nc1ccc2c(c1)S(=O)(=O)C=C2`, the Kd was > 4 mM (inactive).

Turning to `Cc1nnc(SCC(=O)NC2CCCC2)[nH]c1=O`, the Kd is > 4 mM (inactive).

As to `Nc1cc(=O)[nH]c(=S)n1-c1cccc(C(F)(F)F)c1`, the Kd was > 4 mM (inactive).

For the compound `CC(=O)O[C@@H]1CC2C(C)(C)C=CC(=O)[C@]2(C)C2CC[C@@]3(C)[C@H](c4ccoc4)OC(=O)C4OC43[C@@]21C` (stereo partly specified), the Kd is > 4 mM (inactive).

As for `CSc1ccc(C(=S)N2CCN(C)CC2)cc1`, the Kd was > 4 mM (inactive).

On to `Cn1c(CSc2nc3ccccc3s2)n[nH]c1=S`, for which the Kd was > 4 mM (inactive).

On to `C=C1C([C@]2(C)C(CC(=O)OC)[C@@](C)(COC(C)=O)OC(=O)C[C@@H]2OC(C)=O)[C@@H](OC=O)[C@H](OC(=O)C(OC(C)=O)C(C)CC)[C@@]2(C)[C@H](c3ccoc3)CC(=O)C12O` (stereo partly specified), for which the Kd was > 4 mM (inactive).

Consider `Cn1c(SCCC(=O)O)nnc1-c1cccnc1`, for which the Kd is > 4 mM (inactive).

With `O=C1CSC(=Nc2ccc(C(=O)O)cc2)N1`, the Kd was > 4 mM (inactive).

For the compound `Cc1cc(C)nc(/N=C(/N)N2CCC(C(N)=O)CC2)n1`, the Kd was > 4 mM (inactive).

As for `OCc1ccc2c(c1)OCO2`, the Kd is > 4 mM (inactive).

Consider `CNS(=O)(=O)c1cccs1`, for which the Kd was > 4 mM (inactive).

In the case of `Cc1cc(C)n(-c2ccc(N)cc2)n1`, the Kd is > 4 mM (inactive).

With `CCCCCC/C=C\CCCCCCCc1cccc(O)c1C(=O)O`, the Kd was > 4 mM (inactive).

On to `CCOC(=O)C1C(=O)C2CCN1CC2` (stereo unspecified), for which the Kd is > 4 mM (inactive).

For `Cc1nn(-c2ccccc2)nc1CO`, the Kd was > 4 mM (inactive).

With `OCc1cccs1`, the Kd is > 4 mM (inactive).

`COc1ccc(C2CC(=O)NN2)cc1OC1CCCC1` (stereo unspecified): the Kd is > 4 mM (inactive).

In the case of `Cc1ccc(C(=O)NCCO)c(Cl)c1`, the Kd is > 4 mM (inactive).

`CN1CCN(c2nc3c(c(=O)[nH]2)CCCC3)CC1`: the Kd was > 4 mM (inactive).

Regarding `Cc1ccc(SCc2cc(=O)n3[nH]cnc3n2)cc1`, the Kd was > 4 mM (inactive).

`NC1C2CC3CC1CC(O)(C3)C2` (stereo unspecified): the Kd is > 4 mM (inactive).

As to `COc1cccc2c(=O)n(CC(N)=O)ccc12`, the Kd is > 4 mM (inactive).

On to `Nc1ccc2[nH]ccc2c1`, for which the Kd is > 4 mM (inactive).

Turning to `NCc1ccc(-n2cccn2)cc1`, the Kd was > 4 mM (inactive).

Take `CN1CCN(C(=O)c2cc(-c3ccccc3)on2)CC1`: the Kd is > 4 mM (inactive).

With `Oc1ccc(C2SCCS2)cc1`, the Kd was > 4 mM (inactive).

With `CC1=[N+]([O-])C2(N)CCc3c(no[n+]3[O-])C2(O)C1` (stereo unspecified), the Kd was > 4 mM (inactive).

For the compound `COc1c2ccoc2nc2c(OC)c(OCC(O)C(C)(C)O)ccc12` (stereo unspecified), the Kd was > 4 mM (inactive).

Regarding `CS(C)=C1C(=O)NC(=O)N(c2ccccc2)C1=O`, the Kd was > 4 mM (inactive).

For the compound `O=c1cc(-c2ccc(O)cc2)oc2cc(O)cc(O)c12`, the Kd is > 4 mM (inactive).

With `CC(=O)O[C@@H]1CC2C(C)(C)[C@H](O)C=C[C@]2(C)C2CC[C@]3(C)C(=CC(=O)O[C@H]3c3ccoc3)[C@@]21C` (stereo partly specified), the Kd was > 4 mM (inactive).

As for `C(=N\c1ncn[nH]1)/c1cccs1`, the Kd was > 4 mM (inactive).

Regarding `CC12CNCC(C)(CNC1)C2O` (stereo unspecified), the Kd is > 4 mM (inactive).

Consider `CCC(=O)Oc1ccc(N2C(=O)CCC2=O)cc1`, for which the Kd was > 4 mM (inactive).

With `OCC1CCN(Cc2ccccc2)CC1`, the Kd is > 4 mM (inactive).

With `NC(=O)C(=O)Nc1nc(-c2ccccc2)cs1`, the Kd is > 4 mM (inactive).

For `Cc1ccc(C(=O)N2CCC(C(N)=O)CC2)c(Cl)c1`, the Kd was > 4 mM (inactive).

Turning to `CC(=O)OCC(=O)[C@@]1(O)CCC2C3CC[C@@H]4C[C@H](O)CC[C@]4(C)C3C(=O)C[C@@]21C` (stereo partly specified), the Kd was > 4 mM (inactive).

As to `CS(=O)(=O)Cc1ccccc1`, the Kd is > 4 mM (inactive).

Take `CCNC(=S)N1CCC(C(N)=O)CC1`: the Kd is > 4 mM (inactive).

On to `O=C(Oc1ccc(-c2nnco2)cc1)N1CCOCC1`, for which the Kd is > 4 mM (inactive).

Take `C=C[C@@](C)(O)CCC1C(=C)CCC2[C@@](C)(CO)CCC[C@]12C` (stereo partly specified): the Kd was > 4 mM (inactive).

As for `Cc1occc1C(=O)Nc1ccc2c(c1)CCC2`, the Kd is > 4 mM (inactive).

With `COc1ccccc1NC(=O)c1ccc(Br)o1`, the Kd is > 4 mM (inactive).

In the case of `NS(=O)(=O)c1ccc(F)cc1`, the Kd was > 4 mM (inactive).

For the compound `CC(=O)Nc1ccc(S(=O)(=O)NC(N)=O)cc1`, the Kd is > 4 mM (inactive).

As to `O=C1NC(=S)NC(=O)C1=Cc1cccs1`, the Kd is > 4 mM (inactive).

As to `CC1(C)CC2C1CC[C@]1(C)CCC3C(C(=O)O)CC(=O)O[C@@]32C1` (stereo partly specified), the Kd was > 4 mM (inactive).

Turning to `S=c1nc2c(n[nH]1)[nH]c1ccccc12`, the Kd is > 4 mM (inactive).

Consider `COc1ccc2c(=O)c(OC)c(-c3ccccc3)oc2c1`, for which the Kd was > 4 mM (inactive).

Turning to `COC(=O)c1c(OC)cc2c(c1C)Oc1c(Cl)c(O)c(Cl)c(C)c1C(=O)O2`, the Kd is > 4 mM (inactive).

With `COc1cc(C)c2c(c1C=O)Oc1c(c(C)c(O)c3c1C(O)OC3=O)OC2=O` (stereo unspecified), the Kd was > 4 mM (inactive).

As to `NC(CC(=O)O)C(=O)Nc1ccc(Cl)cc1` (stereo unspecified), the Kd was > 4 mM (inactive).

`OCc1ncoc1-c1ccccc1`: the Kd was > 4 mM (inactive).

Turning to `NC1=NC(=O)/C(=C/c2cccs2)S1`, the Kd was > 4 mM (inactive).

On to `COC(=O)c1scc(S(C)(=O)=O)c1-n1cccc1`, for which the Kd is > 4 mM (inactive).

Consider `COC(=O)c1noc(C)c1C(C)=O`, for which the Kd is > 4 mM (inactive).

As for `C=CCn1c(-c2ccc(O)cc2)n[nH]c1=S`, the Kd was > 4 mM (inactive).

Regarding `NC(=O)c1cn(-c2ccccc2)nc1-c1cccnc1`, the Kd is > 4 mM (inactive).

`Cc1ccc(/C=C/C(=O)O)cc1S(=O)(=O)NCCO`: the Kd was > 4 mM (inactive).

On to `O=C(Nc1nnc(-c2ccco2)o1)c1ccc([N+](=O)[O-])o1`, for which the Kd is > 4 mM (inactive).

As to `O=C(O)CCC1NCC2CC1CN1CCCCC21` (stereo unspecified), the Kd was > 4 mM (inactive).

As for `CC(C)CC(=O)NC1CCSC1=O` (stereo unspecified), the Kd is > 4 mM (inactive).

Regarding `CC(C)Nc1ncnc2c1nnn2C`, the Kd was > 4 mM (inactive).

For the compound `Cc1cc(NC(=O)c2cccc(S(C)(=O)=O)c2)no1`, the Kd was > 4 mM (inactive).

`COc1ccc(/C=N/n2cn[nH]c2=S)cc1`: the Kd is > 4 mM (inactive).

`Cc1nc2nc(-c3ccco3)nn2c(C)c1Cl`: the Kd was > 4 mM (inactive).

As to `O=C1CC(=O)N2N=C(c3ccccc3)SC2=N1`, the Kd was > 4 mM (inactive).

Consider `O=C(NC1CCS(=O)(=O)C1)c1ccccc1` (stereo unspecified), for which the Kd was > 4 mM (inactive).

As to `NC(=O)CSc1nnc(-c2cccnc2)o1`, the Kd was > 4 mM (inactive).

`COc1ccc(-c2oc3ccccc3c(=O)c2O)cc1OC`: the Kd is > 4 mM (inactive).

On to `Oc1ccc(-n2cncn2)cc1`, for which the Kd is > 4 mM (inactive).

`Nc1cccc(CC(=S)N2CCOCC2)c1`: the Kd was > 4 mM (inactive).

Turning to `CN1CCN(c2ccc(CN)cc2)CC1`, the Kd was > 4 mM (inactive).

As to `O=C(O)Cn1cc(C(=O)c2cccs2)c2ccccc21`, the Kd was > 4 mM (inactive).

Turning to `C[C@@H](N)[C@@H](O)c1ccccc1`, the Kd is > 4 mM (inactive).

Consider `O=c1c(-c2ccco2)[n+]([O-])c2ccccc2n1O`, for which the Kd is > 4 mM (inactive).

As for `CC(C)(C#N)O[C@@H]1O[C@H](CO)[C@@H](O)[C@H](O)[C@H]1O`, the Kd is > 4 mM (inactive).

With `Cc1cc(C)n(S(=O)(=O)c2ccc(C)c(C)c2C)n1`, the Kd was > 4 mM (inactive).

As to `CSc1ccc(/C=N/n2c(C)nnc2C)cc1`, the Kd was > 4 mM (inactive).

Take `NC(=O)NC(=O)Nc1ccc(Cl)cc1`: the Kd is > 4 mM (inactive).

For `N#Cc1c(N)c(C(=O)c2ccccc2)n2c1CCC2`, the Kd is > 4 mM (inactive).

With `CC(C)NC1CS(=O)(=O)CC1O` (stereo unspecified), the Kd is > 4 mM (inactive).

With `Cc1ccccc1NC(=O)CC1NCCNC1=O` (stereo unspecified), the Kd is > 4 mM (inactive).

Consider `Cc1nnsc1C(=O)Nc1cccc(S(N)(=O)=O)c1`, for which the Kd was > 4 mM (inactive).

Regarding `C#CCCCCCCCCCCCC(=O)CC(O)COC(C)=O` (stereo unspecified), the Kd was > 4 mM (inactive).

Regarding `O=C(Cc1c(F)cccc1Cl)Nc1cccnc1`, the Kd was > 4 mM (inactive).

For `CN1C2C[C@H](OC(=O)[C@H](CO)c3ccccc3)C[C@H]1[C@@H](O)C2`, the Kd is > 4 mM (inactive).

Consider `Nc1ccc(O)cn1`, for which the Kd was > 4 mM (inactive).

Regarding `Cc1cccc(OCc2nnc(N)s2)c1`, the Kd is > 4 mM (inactive).

As to `O=c1[nH]cc(NC(=S)N2CCOCC2)c(=O)[nH]1`, the Kd is > 4 mM (inactive).

On to `COC(=O)C[C@H]1C(C)(C)C(=O)[C@@H]2CC3=C(CC[C@]4(C)C3=CC(=O)O[C@H]4c3ccoc3)C1(C)C2=O`, for which the Kd is > 4 mM (inactive).

For the compound `O=C1c2ccccc2C(=O)N1OCc1ccccc1`, the Kd is > 4 mM (inactive).

Turning to `O=C(NCc1ccccn1)c1ccc(Cl)cc1Cl`, the Kd was > 4 mM (inactive).

Take `O=c1[nH]nc(Cc2ccncc2)c2ccccc12`: the Kd was > 4 mM (inactive).

`C=CC(C1=CC(=O)C(OC)=CC1=O)c1ccc(O)cc1` (stereo unspecified): the Kd was > 4 mM (inactive).

For `O=S(=O)(NCc1ccco1)N1CCOCC1`, the Kd is > 4 mM (inactive).

In the case of `CC(=O)Oc1c2c(c3c(c1CC=C(C)C)O[C@]14C(=C[C@@H]5CC1C(C)(C)OC4(C/C=C(\C)C(=O)O)C5=O)C3=O)OC(C)(CCC=C(C)C)C=C2` (stereo partly specified), the Kd was > 4 mM (inactive).
